From patent US7531527B2, “2-Propylidene-19-nor-vitamin D compounds” (Wisconsin Alumni Research Foundation, priority 2003, dated 2009)

Assays:
[1] = system: 24-hydroxylase (24OHase) gene promoter; test: Transcription activation, 24-hydroxylase promoter luciferase reporter in ROS 17/2.8 (bone) cells; assay type: cell-based; settings: ROS 17/2.8 cells, 16 hours after dosing, FIG. 4
Protocol: Transcriptional activity was measured in ROS 17/2.8 (bone) cells that were stably transfected with a 24-hydroxylase (24OHase) gene promoter upstream of a luciferase reporter gene (Arbour et al., 1998). Cells were given a range of doses. Sixteen hours after dosing the cells were harvested and luciferase activities were measured using a luminometer.
“RLU” in FIG. 4 refers to relative luciferase units.

[2] = system: Male, weanling Sprague-Dawley rats; test: Intestinal calcium transport (everted gut sac method); assay type: in vivo, rat; settings: four consecutive ip doses, FIG. 5
Protocol: (§1) Male, weanling Sprague-Dawley rats were placed on Diet 11 (0.47% Ca) diet+AEK for one week followed by Diet 11 (0.02% Ca)+AEK for 3 weeks. The rats were then switched to a diet containing 0.47% Ca for one week followed by two weeks on a diet containing 0.02% Ca. Dose administration began during the last week on 0.02% calcium diet. Four consecutive ip doses were given approximately 24 hours apart. Twenty-four hours after the last dose, blood was collected from the severed neck and the concentration of serum calcium determined as a measure of bone calcium mobilization. The first 10 cm of the intestine was also collected for intestinal calcium transport analysis using the everted gut sac method.

[3] = system: Male, weanling Sprague-Dawley rats; test: Bone calcium mobilization (serum calcium); assay type: in vivo, rat; settings: four consecutive ip doses, FIG. 6
Protocol: as §1

[4] = target: T1, recombinantly produced rat receptor (1α,25-hydroxyvitamin D3 rat receptor) (Rattus norvegicus, UniProt P13053); test: Competitive VDR binding; settings: FIGS. 1 and 2
T1 construct: made in house
T1 sequence (P13053 1-423): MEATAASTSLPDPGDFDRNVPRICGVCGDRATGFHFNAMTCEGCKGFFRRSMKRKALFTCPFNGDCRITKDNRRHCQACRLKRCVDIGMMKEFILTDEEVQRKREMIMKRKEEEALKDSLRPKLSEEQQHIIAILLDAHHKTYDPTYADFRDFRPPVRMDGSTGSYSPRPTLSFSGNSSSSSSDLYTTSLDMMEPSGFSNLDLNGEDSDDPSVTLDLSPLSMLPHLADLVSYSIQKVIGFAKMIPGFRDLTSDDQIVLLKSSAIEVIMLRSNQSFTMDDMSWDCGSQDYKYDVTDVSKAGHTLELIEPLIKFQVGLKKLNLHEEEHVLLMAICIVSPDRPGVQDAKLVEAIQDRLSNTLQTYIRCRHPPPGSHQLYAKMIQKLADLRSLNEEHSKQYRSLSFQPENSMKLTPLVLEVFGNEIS
Protocol: Competitive binding of the analogs to the porcine intestinal receptor was carried out by the method described by Dame et al (Biochemistry 25, 4523-4534, 1986), except the recombinantly produced rat receptor was used as the receptor (see Vanhooke et al., Biochemistry, in press, 2004).

[5] = system: human leukemia cells (HL-60 cells); test: HL-60 cell differentiation (NBT reduction); assay type: cell-based; settings: for potency in promoting the differentiation of leukemia cells: HL-60 cells, compared with 1α,25-dihydroxyvitamin D3 and 2MD, FIG. 3; for percent of HL-60 cells induced to differentiate: NBT assay, concentration 1×10^−7M
Protocol: The differentiation of HL-60 promyelocytic into monocytes was determined as described by Ostrem et al (J. Biol. Chem. 262, 14164-14171, 1987).
Differentiation activity was assessed by a standard differentiation assay, abbreviated as NBT reduction (nitroblue tetrazolium reduction). The assay was conducted according to known procedures, as given, for example, by DeLuca et al U.S. Pat. No. 4,717,721 and Ostrem et al, J. Biol. Chem. 262, 14164, 1987. For the assay, the differentiation activity of the test compounds is expressed in terms of the percent of HL-60 cells having differentiated to normal cells in response to a given concentration of test compound.

2-[(3′-methoxymethoxy)propylidene]-19-nor-1α,25-dihydroxyvitamin D3 [F-Wit]
transcriptional activity in bone cells [1]: significant transcriptional activity | intestinal calcium transport activity [2]: relatively high intestinal calcium transport activity | intestinal calcium transport activity compared with 2MD [2]: more active than 2MD | ability to mobilize calcium from bone [3]: significant ability to mobilize calcium from bone | bone calcium mobilization compared with 2MD [3]: less active in this regard than 2MD

2-(3′-hydroxypropylidene)-19-nor-1α,25-(OH)2D3 [1AGR]
activity in binding to the 1α,25-hydroxyvitamin D3 rat receptor [4]: very active | potency in promoting the differentiation of leukemia cells [5]: as potent as 1α,25-dihydroxyvitamin D3 and 2MD | percent of HL-60 cells induced to differentiate [5]: the same degree of differentiation | transcriptional activity in bone cells [1]: significant transcriptional activity | intestinal calcium transport activity [2]: relatively high intestinal calcium transport activity | intestinal calcium transport activity compared with 2MD [2]: more active than 2MD | ability to mobilize calcium from bone [3]: significant ability to mobilize calcium from bone | bone calcium mobilization compared with 2MD [3]: less active in this regard than 2MD

2-(3′-hydroxypropylidene)-19-nor-(20S)-1α,25-(OH)2D3 [1AGS]
activity in binding to the 1α,25-hydroxyvitamin D3 rat receptor [4]: very active | potency in promoting the differentiation of leukemia cells [5]: as potent as 1α,25-dihydroxyvitamin D3 and 2MD | percent of HL-60 cells induced to differentiate [5]: the same degree of differentiation | transcriptional activity in bone cells [1]: significant transcriptional activity | intestinal calcium transport activity [2]: relatively high intestinal calcium transport activity | intestinal calcium transport activity compared with 2MD [2]: more active than 2MD | ability to mobilize calcium from bone [3]: significant ability to mobilize calcium from bone | bone calcium mobilization compared with 2MD [3]: less active in this regard than 2MD
